# Source: ChEMBL document CHEMBL1201862, “PubChem BioAssay data set” (2004)
# Calls of active or inactive are those of the source.
# Key:
# [1] = cytotoxicity toward NIH3T3 fibroblasts, dose response, counter-screen, cell-based, ATP luminescence, mouse fibroblasts (AID 2010); assay type: functional;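 further: cells exposed to compound for about 90 hours before reading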
# [2] = inhibitors of intracellular T. cruzi replication, confirmation, NIH3T3 host cells, beta-gal luminescence (AID 2044); assay type: functional, cell-based;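 further: intracellular parasites grown in NIH/3T3 mouse fibroblasts as host cells; luminescent beta-galactosidase reporter signal from transgenic T. cruzi replicating inside host cells; inhibitors lower the luminescence signal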
# Cytochrome P450 2C19 = Cytochrome P450 2C19 (Homo sapiens, UniProt P33261); experiment: Cytochrome panel assay with activity outcomes. Panel member name: p450-cyp2c19 Compounds with AC50 equal or less than 10 uM are considered active; assay type: functional; settings: read-out: AC50
# Cytochrome P450 2C19, sequence (P33261 whole entry): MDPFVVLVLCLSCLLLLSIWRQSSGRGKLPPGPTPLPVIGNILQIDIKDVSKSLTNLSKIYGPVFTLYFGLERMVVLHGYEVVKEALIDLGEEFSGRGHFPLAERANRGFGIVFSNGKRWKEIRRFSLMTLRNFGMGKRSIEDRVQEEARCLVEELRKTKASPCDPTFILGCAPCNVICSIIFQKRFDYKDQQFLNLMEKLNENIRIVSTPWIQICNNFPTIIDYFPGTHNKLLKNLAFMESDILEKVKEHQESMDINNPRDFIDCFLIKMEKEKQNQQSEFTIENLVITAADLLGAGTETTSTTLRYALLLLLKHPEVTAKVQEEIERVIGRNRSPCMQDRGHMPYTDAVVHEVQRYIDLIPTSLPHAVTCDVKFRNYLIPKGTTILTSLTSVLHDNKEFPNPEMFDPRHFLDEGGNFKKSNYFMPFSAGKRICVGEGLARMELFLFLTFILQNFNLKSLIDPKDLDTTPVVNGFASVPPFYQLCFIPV
# Cytochrome P450 2C9 = Cytochrome P450 2C9 (Homo sapiens, UniProt P11712)
# Cytochrome P450 2C9, sequence (P11712 whole entry): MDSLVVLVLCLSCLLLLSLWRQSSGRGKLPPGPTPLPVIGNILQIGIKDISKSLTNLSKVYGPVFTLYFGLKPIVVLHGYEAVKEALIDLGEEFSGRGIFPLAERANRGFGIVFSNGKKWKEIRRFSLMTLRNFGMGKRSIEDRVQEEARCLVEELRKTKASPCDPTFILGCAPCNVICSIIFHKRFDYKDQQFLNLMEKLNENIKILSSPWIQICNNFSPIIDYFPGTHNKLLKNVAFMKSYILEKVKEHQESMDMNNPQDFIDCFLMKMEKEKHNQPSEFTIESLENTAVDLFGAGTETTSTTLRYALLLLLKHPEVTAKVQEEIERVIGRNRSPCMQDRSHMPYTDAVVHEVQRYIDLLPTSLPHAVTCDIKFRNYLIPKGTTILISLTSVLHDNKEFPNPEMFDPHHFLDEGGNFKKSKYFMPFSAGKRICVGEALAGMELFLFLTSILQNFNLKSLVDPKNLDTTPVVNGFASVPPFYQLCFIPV
# [3] = Luminescence Cell-Based Dose Response HTS to Identify Activators of Luciferase Translation or Activity in H4 […] Cells. [Related pubchem assays: 1829 (Project Summary), 1814 (Primary HTS)]; assay type: functional
# H4 = experiment: Luminescence Cell-Based Dose Response HTS to Identify Activators of 5'UTR Stem-Loop Driven Prion Protein mRNA Translation in H4 Neuroglioblastoma Cells. [Related pubchem assays: 1829 (Project Summary), 1814 (Primary HTS)]; assay type: functional; settings: Homo sapiens
# Cytochrome P450 1A2 = biological target: T1, Cytochrome P450 1A2 (Homo sapiens, UniProt P05177);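 further: PubChem cytochrome P450 panel assay, CYP1A2 panel member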
# T1 sequence (P05177 whole entry): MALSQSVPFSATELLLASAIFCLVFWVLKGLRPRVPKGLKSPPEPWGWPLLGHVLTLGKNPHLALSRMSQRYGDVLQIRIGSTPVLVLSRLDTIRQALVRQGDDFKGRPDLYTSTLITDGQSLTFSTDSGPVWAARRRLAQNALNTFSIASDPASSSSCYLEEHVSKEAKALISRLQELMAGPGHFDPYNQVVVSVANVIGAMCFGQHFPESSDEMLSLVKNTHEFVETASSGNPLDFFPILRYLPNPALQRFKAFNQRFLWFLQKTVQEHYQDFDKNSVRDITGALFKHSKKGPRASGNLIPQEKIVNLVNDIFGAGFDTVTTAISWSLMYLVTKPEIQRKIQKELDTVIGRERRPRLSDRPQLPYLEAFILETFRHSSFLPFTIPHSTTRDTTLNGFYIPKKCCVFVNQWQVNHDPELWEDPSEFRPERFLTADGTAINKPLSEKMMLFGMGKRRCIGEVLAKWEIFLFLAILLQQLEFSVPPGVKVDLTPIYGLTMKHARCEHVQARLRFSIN
# [4] = biological target: T2, Corticotropin-releasing factor receptor 2/Corticotropin-releasing factor-binding protein (Homo sapiens, UniProt P24387+Q13324); experiment: activators of CRF receptor 2 with binding protein – uHTS hits, confirmation (AID 602473); assay type: functional; settings: read-out: EC50_Mean
# T2 sequence (Q13324 whole entry): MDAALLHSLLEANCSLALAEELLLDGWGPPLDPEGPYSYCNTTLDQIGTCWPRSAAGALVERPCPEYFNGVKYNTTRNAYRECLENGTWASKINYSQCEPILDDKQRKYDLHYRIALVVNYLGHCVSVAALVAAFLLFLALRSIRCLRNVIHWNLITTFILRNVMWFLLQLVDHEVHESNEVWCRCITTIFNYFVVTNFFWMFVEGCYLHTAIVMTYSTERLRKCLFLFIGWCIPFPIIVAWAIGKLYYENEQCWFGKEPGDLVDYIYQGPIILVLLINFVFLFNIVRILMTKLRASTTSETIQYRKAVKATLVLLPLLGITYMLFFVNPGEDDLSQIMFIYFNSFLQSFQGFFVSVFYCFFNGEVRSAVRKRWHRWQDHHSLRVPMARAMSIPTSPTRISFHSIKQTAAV
# T2 sequence (P24387 whole entry): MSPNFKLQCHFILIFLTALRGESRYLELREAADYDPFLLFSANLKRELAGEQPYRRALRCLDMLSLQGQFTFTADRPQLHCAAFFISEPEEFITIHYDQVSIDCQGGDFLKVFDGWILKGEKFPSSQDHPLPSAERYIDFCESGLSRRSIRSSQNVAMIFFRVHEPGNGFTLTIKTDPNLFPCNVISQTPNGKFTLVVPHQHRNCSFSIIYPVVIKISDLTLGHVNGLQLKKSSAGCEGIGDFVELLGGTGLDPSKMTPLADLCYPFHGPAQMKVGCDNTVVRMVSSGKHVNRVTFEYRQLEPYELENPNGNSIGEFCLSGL
# Streptokinase A = biological target: T3, Streptokinase A (Streptococcus pyogenes serotype M1, UniProt P10520); experiment: S. pyogenes streptokinase expression inhibitors, potency, dose response, plasminogen activation absorbance, OD405 (AID 1914); assay type: functional, Streptococcus pyogenes M1 GAS;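 further: secreted streptokinase activity via plasminogen activation per viability signal from cell pellet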
# T3 sequence (P10520 whole entry): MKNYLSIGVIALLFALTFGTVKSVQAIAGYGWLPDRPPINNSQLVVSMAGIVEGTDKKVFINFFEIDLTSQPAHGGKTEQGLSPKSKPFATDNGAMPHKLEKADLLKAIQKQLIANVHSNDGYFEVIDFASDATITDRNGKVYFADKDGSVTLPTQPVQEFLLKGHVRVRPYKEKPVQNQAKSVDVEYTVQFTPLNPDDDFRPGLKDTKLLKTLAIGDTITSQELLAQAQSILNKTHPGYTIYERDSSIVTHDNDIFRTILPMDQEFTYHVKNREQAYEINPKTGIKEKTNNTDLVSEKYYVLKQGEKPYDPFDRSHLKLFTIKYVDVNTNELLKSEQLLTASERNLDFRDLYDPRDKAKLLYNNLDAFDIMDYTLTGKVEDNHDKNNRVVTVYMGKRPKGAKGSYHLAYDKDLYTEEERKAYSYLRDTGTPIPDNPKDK
# Streptococcus = experiment: Group A Streptococcus viability loss, dose response, counter-screen for streptokinase expression inhibitor project, luminescence, BacTiterGlo (AID 1915); assay type: functional, organism-based;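 further: potency for reduction of bacterial viability or growth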
# [5] = system: Streptococcus sp. 'group A'; experiment: growth inhibition of control SK(-) GAS strain, dose response, counter-screen for streptokinase expression inhibitor project, luminescence, kanamycin, BacTiterGlo, confirmation (AID 1900); assay type: functional, organism-based
# Cytochrome P450 3A4 = Cytochrome P450 3A4 (Homo sapiens, UniProt P08684);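 further: CYP3A4 tested as one member of a cytochrome P450 panel screen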
# Cytochrome P450 3A4, sequence (P08684 whole entry): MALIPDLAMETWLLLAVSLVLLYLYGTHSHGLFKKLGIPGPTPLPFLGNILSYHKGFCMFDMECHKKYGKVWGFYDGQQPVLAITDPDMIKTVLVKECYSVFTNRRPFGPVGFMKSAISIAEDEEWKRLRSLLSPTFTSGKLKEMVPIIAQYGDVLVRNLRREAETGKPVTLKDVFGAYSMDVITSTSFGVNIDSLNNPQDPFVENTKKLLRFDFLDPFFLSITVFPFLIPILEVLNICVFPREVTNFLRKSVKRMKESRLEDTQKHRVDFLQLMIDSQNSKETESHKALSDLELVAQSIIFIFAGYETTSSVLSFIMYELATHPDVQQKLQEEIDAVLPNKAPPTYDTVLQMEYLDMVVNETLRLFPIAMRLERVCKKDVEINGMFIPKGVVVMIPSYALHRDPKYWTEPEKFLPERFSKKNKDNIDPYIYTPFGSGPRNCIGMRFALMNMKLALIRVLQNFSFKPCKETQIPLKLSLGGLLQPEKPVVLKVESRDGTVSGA
smiles,measurement,setting,value
CN1CCC(N(C)C(=O)c2sc3cc(F)ccc3c2Cl)CC1,EC50,[1],> 60 µM (not active)
same,EC50,[2],0.197 µM (active)
Oc1c(CN2CCOCC2)cc(-c2ccccc2)cc1CN1CCOCC1,AC50,Cytochrome P450 2C19,11.2 µM (inconclusive)
same,AC50,Cytochrome P450 2C9,28.2 µM (inconclusive)
O=C(CC(=O)c1ccccc1)Nc1cccnc1Cl,EC50,[3],61.9 µM (active)
same,EC50,H4,8.38 µM (active)
O=C(CC(=O)NN=C1CCCC1)NCCc1ccccc1,AC50,Cytochrome P450 2C19,25.1 µM (inconclusive)
CCN1CC(CN(C)Cc2nc(-c3ccc(C(F)(F)F)cc3)oc2C)CC1=O (stereo not given),EC50,[1],32.6 µM (active)
same,EC50,[2],0.288 µM (active)
Cc1nc2ccccc2c(=O)n1NC(=O)/C=C/c1ccccc1Cl,EC50,[3],12.2 µM (active)
same,EC50,H4,84.4 µM (active)
O=[N+]([O-])c1ccc(S(=O)(=O)NCC(c2cccnc2)N2CCc3ccccc32)cc1 (stereo not given),EC50,[1],> 60 µM (not active)
same,EC50,[2],0.622 µM (active)
CCC(=O)Nc1nnc(C(C)(C)C)s1,AC50,Cytochrome P450 1A2,17.8 µM (inconclusive)
Nc1c2c(nc3ccccc13)CCN(Cc1ccccc1)C2,EC50,[4],> 53 µM (inactive)
Cc1noc(C)c1CSCC(=O)Nc1nc2ccc(Oc3ccccc3)cc2s1,EC50,Streptokinase A,16.9 µM (active)
same,EC50,Streptococcus,> 150 µM (not active)
same,EC50,[5],4.32 µM (active)
Cc1cc2c(cc1C)-c1c(ss/c1=N\c1ccc(S(N)(=O)=O)cc1)C(C)(C)N2,EC50,Streptokinase A,26.1 µM (active)
same,EC50,Streptococcus,> 150 µM (not active)
same,EC50,[5],4.16 µM (active)
CCOC(=O)c1c(NC(=O)CCCN2CCOCC2)sc2c1CC(C)(C)OC2,AC50,Cytochrome P450 2C19,39.8 µM (inconclusive)
same,AC50,Cytochrome P450 2C9,0.282 µM (inconclusive)
COC(=O)C1=C(C)NC(C)=C(C(=O)OC(C)C)[C@H]1c1cccc2nonc12 [(S)-ISRADIPINE],AC50,Cytochrome P450 1A2,12.6 µM (inconclusive)
O=C(Cn1c(-c2ccccc2)c[n+]2ccsc12)c1ccccc1,EC50,[1],> 30 µM (not active)
same,EC50,[2],2.29 µM (active)
COc1cccc(CNC(=O)CCC2CCCN(Cc3cc4ccccc4o3)C2)c1 (stereo not given),EC50,[1],> 60 µM (not active)
same,EC50,[2],0.103 µM (active)
Cc1c(C(=O)N2CCC(Cc3ccccc3)CC2)sc2ncnc(N3CCC(C)CC3)c12,EC50,Streptokinase A,3.68 µM (active)
same,EC50,Streptococcus,60 µM (active)
same,EC50,[1],> 60 µM (not active)
same,EC50,[5],11.6 µM (active)
same,EC50,[2],1.68 µM (active)
COC(=O)[C@@]1(Cc2ccc(OC)cc2)[C@H]2c3cc(C(=O)N4CCCC4)n(CCN4CNCC4=O)c3C[C@H]2CN1C(=O)c1ccccc1,AC50,Cytochrome P450 1A2,31.6 µM (inconclusive)
CCCn1c(=O)c(C(=O)Nc2ncccc2C)c(O)c2ccccc21,EC50,Streptokinase A,> 150 µM (not active)
same,EC50,Streptococcus,16.8 µM (active)
same,EC50,[5],9.49 µM (active)
Oc1nc2cc(Cl)ccc2c(O)c1-c1ccc(Oc2ccccc2)cc1,AC50,Cytochrome P450 3A4,10 µM (inconclusive)
same,AC50,Cytochrome P450 1A2,10 µM (inconclusive)
C=CCn1c(SCC(=O)N2CC(=O)Nc3ccccc32)nc2scc(-c3ccccc3)c2c1=O,AC50,Cytochrome P450 1A2,14.1 µM (inconclusive)
COc1ccccc1CNC(=O)c1ccc(-c2ccccc2Cl)o1,EC50,Streptokinase A,> 150 µM (not active)
same,EC50,Streptococcus,17.5 µM (active)
same,EC50,[5],15.3 µM (active)
COc1ccc(CCNC(=O)c2nnn(CC(=O)Nc3ccccc3C)c2N)cc1OC,AC50,Cytochrome P450 2C19,17.8 µM (inconclusive)
O=C(CSc1nnc(-c2cccnc2)o1)Nc1ccccn1,EC50,[3],14.5 µM (active)
same,EC50,H4,> 120 µM (not active)
CC(C)CN1CC[C@@]2(CCCN(C(=O)Oc3ccccc3)C2)C1,AC50,Cytochrome P450 2C9,31.6 µM (inconclusive)
same,AC50,Cytochrome P450 1A2,15.8 µM (inconclusive)
COc1ccc(CNC(=O)CN(Cc2ccccc2)S(=O)(=O)c2ccc(Cl)cc2)cc1,EC50,[1],> 60 µM (not active)
same,EC50,[2],3.15 µM (active)
O=C(Cn1cnc2cc([N+](=O)[O-])ccc2c1=O)Nc1ccc(Br)cc1,EC50,[1],> 30 µM (not active)
same,EC50,[2],0.85 µM (active)
COc1ccc(C(=O)Nc2sc(C)c(-c3ccccc3)c2C#N)cc1OC,EC50,Streptokinase A,> 150 µM (not active)
same,EC50,Streptococcus,45.5 µM (active)
same,EC50,[5],9.09 µM (active)
Cc1ccc(C)c(Cn2cnc3c(cnn3C(C)(C)C)c2=O)c1,AC50,Cytochrome P450 3A4,0.794 µM (inconclusive)
same,AC50,Cytochrome P450 1A2,10 µM (inconclusive)
NC(=S)c1ccc[n+]([C@@H]2O[C@@H](COP(=O)([O-])OP(=O)(O)OC[C@@H]3O[C@@H](n4cnc5c(N)ncnc54)[C@@H](OP(=O)(O)O)[C@H]3O)[C@@H](O)[C@H]2O)c1,AC50,Cytochrome P450 1A2,39.8 µM (inconclusive)
COc1cc(/C=C2\CCC(C)C3=C(c4cc(OC)c(OC)c(OC)c4)C(C#N)=C(N)OC32)cc(OC)c1OC (stereo not given),EC50,[4],> 53 µM (inactive)
Cc1nn(C)c(Cl)c1CN1CCCC(C(=O)Nc2ccc(-c3cscn3)cc2)C1 (stereo not given),EC50,Streptokinase A,> 150 µM (not active)
same,EC50,Streptococcus,> 150 µM (not active)
same,EC50,[5],> 150 µM (not active)
O=C(O)CSc1nnc(Cn2c(=O)sc3ccccc32)n1-c1cccc(Cl)c1,EC50,Streptokinase A,> 150 µM (not active)
same,EC50,Streptococcus,> 150 µM (not active)
same,EC50,[5],> 150 µM (not active)
Cc1ccccc1C(=O)c1cccn1CC(=O)NCc1ccco1,AC50,Cytochrome P450 1A2,10 µM (inconclusive)
Clc1ccc(-c2cc3ccccc3nc2N2CCCC2)cc1,EC50,Streptokinase A,17.6 µM (active)
same,EC50,Streptococcus,> 150 µM (not active)
same,EC50,[5],8.89 µM (active)
[O-]c1c[n+](CC[n+]2cc([O-])on2)no1,AC50,Cytochrome P450 1A2,2.51 µM (inconclusive)
C/C(Cn1cnc([N+](=O)[O-])n1)=N\NC(=O)c1ccc(O)cc1O,EC50,[1],> 60 µM (not active)
same,EC50,[2],1.52 µM (active)
CC(C)c1c(C(=O)N/N=C/c2cccc(OCc3ccccc3)c2)nnn1-c1nonc1N,EC50,Streptokinase A,9.73 µM (active)
same,EC50,Streptococcus,26.4 µM (active)
same,EC50,[5],8.03 µM (active)
C=C(C)CSc1nncn1/N=C/c1ccc(OC)cc1,EC50,[3],> 120 µM (not active)
same,EC50,H4,11.9 µM (active)
COc1ccccc1C(=O)Nc1nnc(S(=O)(=O)N2CCN(c3ccc(F)cc3)CC2)s1,EC50,Streptokinase A,> 50 µM (not active)
same,EC50,Streptococcus,119 µM (inconclusive)
same,EC50,[5],20.1 µM (active)
Fc1ccc(/C=C\c2[nH]ccc3c4ccccc4nc2-3)cc1,EC50,[3],17.7 µM (active)
same,EC50,H4,> 120 µM (not active)
O=C(C1CCCCC1)N(CCN1CCCC1)c1nc2ccccc2s1,EC50,[1],> 60 µM (not active)
same,EC50,[2],0.78 µM (active)
O=C(Oc1ccc(S(=O)(=O)F)cc1F)c1ccccc1Cl,AC50,Cytochrome P450 1A2,5.01 µM (inconclusive)
